The values below come from paper PMC13237026, “Structural basis for a central permeation pathway in the P2X1 receptor” (Cell Discovery, 2026).

Series [1] has as its target T1, mP2X1 receptor (Mus musculus, UniProt P51576, K190A).
T1 construct: gene P2rx1
Nature of the series: cell-based.

Series [2] concerns the target T2, mP2X1 receptor (Mus musculus, UniProt P51576).
T2 sequence (P51576 1-399): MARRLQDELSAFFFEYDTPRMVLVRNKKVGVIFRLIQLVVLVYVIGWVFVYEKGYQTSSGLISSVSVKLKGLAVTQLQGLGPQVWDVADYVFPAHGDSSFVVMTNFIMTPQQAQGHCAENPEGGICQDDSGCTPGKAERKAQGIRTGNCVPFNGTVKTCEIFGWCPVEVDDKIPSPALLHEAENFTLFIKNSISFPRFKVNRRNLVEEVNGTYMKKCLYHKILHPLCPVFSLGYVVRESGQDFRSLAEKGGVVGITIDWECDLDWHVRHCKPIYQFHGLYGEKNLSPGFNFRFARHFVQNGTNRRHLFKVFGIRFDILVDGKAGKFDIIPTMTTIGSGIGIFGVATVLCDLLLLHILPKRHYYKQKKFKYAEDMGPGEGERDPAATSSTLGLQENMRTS
Put plainly: cryo-EM structure of the complex. The series is classed as binding. More on the design: gene P2rx1; full-length wild type; cryo-EM: Sf9, C-terminal His and Flag tags after HRV-3C site, homotrimer in LMNG; electrophysiology: HEK293, pCDNA3.1, labelled with mCherry.

Series [3] deals with T3, mP2X1 receptor (Mus musculus, UniProt P51576, R139A).
T3 construct: gene P2rx1
Nature of the series: cell-based.

Series [4] deals with T2, mP2X1 receptor. Put plainly: cell-based. The arrangement: gene P2rx1.
Series [5] addresses T4, mP2X1 receptor (Mus musculus, UniProt P51576, K140A).
T4 construct: gene P2rx1
Nature of the series: cell-based.

Series [6] concerns the target T2, mP2X1 receptor. Nature of the series: whole-cell patch clamp, HEK293, ATP-evoked mixed-cation current. The series is classed as cell-based. The arrangement: gene P2rx1; full-length wild type; electrophysiology: HEK293, pCDNA3.1, labelled with mCherry. (In general: In patch-clamp work, channel activity is measured electrically.)
Series [7] deals with the molecule itself. Put plainly: cryo-EM structure; single-particle cryo-EM of purified mP2X1 in LMNG (20 mM HEPES pH 7.0, 150 mM NaCl, 0.002% LMNG), 4.0 mg/mL; without added Ca2+, with 1, 5 or 10 mM Ca2+, or with 5 mM Ca2+ and 10 uM BTFA.

T4 sequence (P51576 whole entry K140A): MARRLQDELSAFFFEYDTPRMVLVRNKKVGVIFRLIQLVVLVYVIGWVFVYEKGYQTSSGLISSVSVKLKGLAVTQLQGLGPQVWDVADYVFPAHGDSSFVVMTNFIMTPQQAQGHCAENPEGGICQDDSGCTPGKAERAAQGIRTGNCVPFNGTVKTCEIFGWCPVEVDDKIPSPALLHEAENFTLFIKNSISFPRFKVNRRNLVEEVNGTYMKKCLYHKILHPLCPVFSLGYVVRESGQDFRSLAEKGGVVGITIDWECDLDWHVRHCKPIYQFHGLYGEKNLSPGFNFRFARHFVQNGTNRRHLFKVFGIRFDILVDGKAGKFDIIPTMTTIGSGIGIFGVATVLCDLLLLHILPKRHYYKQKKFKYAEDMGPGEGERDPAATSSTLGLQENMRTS
T1 sequence (P51576 whole entry K190A): as the sequence (P51576 whole entry K140A) above, with A140K, K190A counted along it
T3 sequence (P51576 whole entry R139A): as the sequence (P51576 whole entry K140A) above, with R139A, A140K counted along it

As a reminder, the EC50 is the concentration at which the effect is half-maximal. Lower therefore signals higher potency in that assay. With `Nc1ncnc2c1ncn2[C@@H]1O[C@H](COP(=O)(O)OP(=O)(O)OP(=O)(O)O)[C@@H](O)[C@H]1O` [ATP], the EC50 in series [1] is 6.74 µM; in series [3] it was 5.29 µM; in series [4], 0.829 µM; in series [5], 10.3 µM. Further, in series [2] (co-purified ATP, no exogenous ATP or Ca2+ added, three ATP per trimer, orthosteric site), the “cryo-EM structure of the complex” value is “EM maps revealed the presence of three clear ATP molecules within the structures”.
As usually defined, the IC50 is the concentration that gives 50% inhibition. Higher therefore signals a need for much substance. Regarding `Nc1cc(C(F)(F)F)cc(C(F)(F)F)c1` [BTFA, 3,5-bis(trifluoromethyl)aniline], the “cryo-EM structure of the complex” value in series [2] (10 μM BTFA, 5 mM Ca2+, allosteric, top of central vestibule) is listed as “we determined the cryo-EM structure of the P2X1–BTFA complex”. The same molecule displayed a concentration for half-maximal inhibition (IC50) in series [6] of 4.3 µM.

B1: full-length, wild-type mouse P2X1 (mP2X1) receptor (receptor, UniProt P51576 1-399, looked up)
chain: T2 sequence (P51576 1-399)
notes: mouse P2X1 receptor (P2RX1), wild type, full length, cloned from mouse olfactory cortex cDNA; His tag and Flag tag at the C-terminus are connected by an HRV-3C protease recognition site; no cleavage is described; N-linked glycosylation is observed; also called P2RX1; P2XR1; not shown: Flag (1x), C-terminal, kept
The stoichiometry N is the number of molecules, sites or subunits per partner or assembly. B1: the “stoichiometry N” value in series [7] was 3.
